Structure (SMILES)	melting point [°C]
CSc1nncc(C(C)(C)C)n1	91 to 93
CN(C)C(=O)Nc1ccc(Br)cc1	168 to 170
Cc1cc(C)n(-c2cc(OS(C)(=O)=O)c(Cl)cc2F)n1	77.5 to 79
Cc1oc(CCOc2ccc(CC3SC(=O)NC3=O)cn2)nc1Cc1ccccc1 (stereo not drawn)	110 to 111
CC(C)=CCc1c(C)c(C)c(O)c(C)c1C	105 to 106
Cc1nc(-c2ccccc2)nc(-c2ccncc2)c1CO	175 to 176
Cc1cc(C)c(C(=O)Nc2ccccc2S(C)=O)c(I)c1 (stereo not drawn)	114
CC(C)(C)[C@@H]1O[C@@H](O)[C@@H]2[C@H]1C2(C)C	126
CCCCOc1cc(C=CC(=O)N2CCN(c3ccc(NC(=N)c4cccs4)cc3)CC2)cc(OCCCC)c1O	65 to 68
CCOC(=O)c1cc2cccnc2n1Cc1ccccc1	71 to 72
CCCCCCCCCCCCCCCCCCOc1cccc(CC(=O)N(CC(=O)OC)CC(=O)OC)c1	52 to 55
Cc1cc2cc(O)c(Cl)c(Cl)c2s1	93 to 95
CC(=O)OC1CCC2(C)C(=CCC3C2CCC2(C)C(n4ccnn4)=CCC32)C1 (stereo not drawn)	158 to 160
CC(=O)c1ccc2ccccc2c1OC(F)F	80 to 81
Cc1c(CO)c2c(c(C)c1NC(=O)CC(C)(C)C)C(c1ccc(C(C)C)cc1)CO2 (stereo not drawn)	274 to 275
C=CCN(CC=C)c1nc(NC(=O)OCc2ccccc2)n2oc(=O)nc2n1	171 to 173
COC(=O)N(C)CCc1ccc2[nH]cc(S(=O)(=O)c3ccccc3)c2c1	195 to 197
CN(C(=O)[C@@H](OP(c1ccccc1)c1ccccc1)C(C)(C)C)P(c1ccccc1)c1ccccc1	95 to 96
Cc1cc2c(cc1O)OCCC2=O	185 to 186
CC(C#N)(COc1cc(C#N)ccc1C(F)(F)F)NC(=O)c1ccc(OC(F)(F)F)cc1 (stereo not drawn)	75 to 78
CC1(C)OC(=O)N2CCN(C(=O)OCc3ccccc3)CC21 (stereo not drawn)	86 to 88
CCOC(=O)CCc1cc2ccccc2c(-c2ccccc2)n1	109
Clc1ccc(C=NOCC2CO2)cc1 (stereo not drawn)	69 to 70
Cn1c(C(=O)O)c(-c2ccc(F)cc2)c2ccsc2c1=O	205
Cn1ccc2cc(N3Cc4ccc(O)cc4C3=O)ccc21	230 to 235
CCOC(=O)C(C)(C)C(=O)C(Oc1ccc(Cl)cc1)n1ccnc1 (stereo not drawn)	88

Structure (SMILES)	melting point [°C]
O=c1[nH]cc(Cc2ccncc2)c2ccccc12	189 to 190
CC(c1ccc(C(=O)O)cc1)N(C)c1ccc(Br)cc1OCc1ccccc1 (stereo not drawn)	182
COc1ccc(C=CC(=O)c2ccc(OCC3CO3)cc2)cc1 (stereo not drawn)	85 to 87
NC(=NO)c1ccc2c(c1)nc(-c1ccc(OCc3ccccc3)cc1)n2C1CCCC1	225 to 226
CC[C@H](NC(=O)OC(C)(C)C)c1nc2c(C(F)(F)F)cccc2c(O)c1C(=O)Nc1nccs1	260 to 262
COc1ccc(-n2nc(C(F)F)cc2-c2ccc(S(C)=O)cc2)cc1 (stereo not drawn)	123 to 124
CCCCc1nc(C(C)(C)O)c(C(=O)OCOC(=O)OC(C)C)n1Cc1ccc(-c2ccccc2C(=O)O)cc1	154 to 156
COc1ccc2cccc(C(CCO)CNC(=O)C3CC3)c2c1 (stereo not drawn)	158 to 160
COc1ccc2c(c1)S(=O)c1nccnc1N2 (stereo not drawn)	240 to 241
C=C(C)c1cc(Br)c(Oc2nc(C)nc(N3CCOCC3)n2)c(OC)c1	63 to 67
CC1=C(c2ccccc2)C(=O)N(C(C)(C)C(=O)Nc2cccc(Cl)c2)CO1	114
COC(=N)NC(=O)CCl	123
O=C(N[C@H]1CC[C@H](O)CC1)OCc1ccccc1	148 to 151
Cc1cc2c(cc1-c1cc(C=C3SC(=O)NC3=O)ccc1N(C)C)N(C(C)C)C(=O)CC2(C)C	274 to 276
C[C@@H](O)CNC(=O)N1CC(Oc2ccc(C(C)(C)C)cc2)C1	104 to 105
Cc1cc(SCc2ccc(-c3ccc(C(F)(F)F)cn3)cc2)c2c(c1OCC(=O)O)CCCO2	156 to 157
O=C(NCc1ccccn1)Nc1cc(N2C(=O)C3(CCCC3)c3ccccc32)ccn1	135
CC(C)OC(=O)c1cc(-n2c(=O)[nH]c3c(c2=O)SCC3)c(F)cc1Cl	252 to 254
O=C(O)c1[nH]c2ccc(C(O)(C(F)(F)F)C(F)(F)F)cc2c1-c1ccccc1	186 to 190
Cc1nc(-c2ccccc2)nc(-c2cccc([N+](=O)[O-])c2)c1C(=O)O	208 to 209
OC[C@@](O)(Cc1ccccc1)c1ccccc1	62
COCCNC(=O)c1cccc(-c2cccc3c(F)c(Cc4cccc(C(F)(F)F)c4)sc23)c1	115 to 116
Cn1ncc(C(=O)O)c1C(=O)Nc1ccn2nc(-c3cccc(F)n3)nc2c1	> 290
CCOP(=O)(Cc1ccc(NC(=O)c2cc(=O)c3ccccc3o2)cc1)OCC	153 to 154
OCCCCc1c[nH]c2ccccc12	189 to 190
COc1ccc2c(c1)CCC1CCNC(=O)C(CC(C)N(Cc3ccccc3)C(C)C)=C21 (stereo not drawn)	205 to 207

Structure (SMILES)	melting point [°C]
CCn1cc(C=CC(=O)NC2CCNC(=O)C2)nc1-c1ccccc1 (stereo not drawn)	270 to 272
CC(=O)Nc1ccc2cccc(Oc3cc(-c4ccc(C(F)(F)F)cc4)ncn3)c2n1	204 to 206
CCOc1cc(COc2nn(-c3ccccc3)cc2/C=C/P(=O)(OCC)OCC)ccc1OCc1nc(-c2ccco2)oc1C	117 to 118
c1ccc(-c2cc3c(ccc4ccccc43)o2)cc1	140 to 144
NC(=O)C1CCC(OCCCN2CCN(c3cccc4sccc34)CC2)CC1 (stereo not drawn)	108
CC12CCC3C4CCC(=O)C=C4CCC3C1CCC2C(F)F (stereo not drawn)	102 to 103
COc1ccc(Nc2ccc(O)cc2)c(CO)c1	96.5 to 97
Oc1ccc(-c2noc(C3(COc4c(F)cccc4OC(F)(F)F)CC3)c2-c2ccccc2)cc1	132 to 133
Cc1ccccc1CNC[C@@H]1C[C@@H](S)CN1S(=O)(=O)c1ccc2ccccc2c1	122
CC(=O)ON=C(c1ccc(OC(C)=O)cc1O)c1ccccc1F	132 to 134
NC(=O)N1CCC(c2nn(-c3ccccc3)c3cc(Cl)ccc23)CC1	148 to 150
CCCCCCCCCCCCC(C)COc1ccc(C(=O)O)o1 (stereo not drawn)	88 to 90
CCOC(=O)CCN1CCN(C2=Nc3ccccc3Oc3ccc(Cl)cc32)CC1	73 to 75
O=C(N[C@H](c1ccccc1)[C@@H](O)CO)c1cc2ccccc2[nH]1 (racemic)	151
CCOCCOC(=O)C(=O)Nc1nc(-c2cc3ccccc3oc2=O)cs1	156 to 157
O=C1CC(=Cc2cccc3ccccc23)C(=O)O1	162 to 164
Cc1cc(COc2ccc(Cl)cc2CN)on1	32 to 35
O=C1CC(c2cccc(OCc3ccccc3)c2)=Nc2ccc(N3CCCC3)cc21	320 to 322
CCN(CC1CCCC1)c1nc2ccccc2cc1CN(Cc1cc(C(F)(F)F)cc(C(F)(F)F)c1)c1nnc(C)o1	126 to 127
CN1Cc2c(C#N)ncn2-c2ccc(F)c(Cl)c2C1=O	221 to 223
OC1(c2ccccc2)CCN(CCCC2COc3ccccc3O2)CC1 (stereo not drawn)	95 to 98
CCC(C)(C)c1ccc(OCCCNC(=O)c2cc(OS(=O)(=O)CCCOc3ccc(N)cc3)c3ccccc3c2O)c(C(C)(C)CC)c1	125 to 126
OCCOc1cnccc1CCCOc1cccnc1Oc1ccccc1	129 to 132
CCCn1c(=O)c2[nH]c(/C=C/c3cc(OC)c(OC)c(OC)c3)nc2n(CCC)c1=O	162 to 163
COC(=O)NC(=O)Nc1nc2c(Cl)cccc2s1	319 to 320
COC(=O)c1cccnc1C(=O)c1ccc(F)cc1	95 to 96.5

Structure (SMILES)	melting point [°C]
O=Cc1ccc(-c2ccc(Br)cc2)nc1	108 to 109
Clc1ccc(C(Cl)(Cl)Cl)cn1	51 to 54
CCCCCCCC(O)CC(=O)O (stereo not drawn)	55 to 56
O=C1CCC(c2ccccc2)(N2CCOCC2)CC1	116 to 119
CCOc1ccc(S(=O)(=O)N2CCNCC2)cc1-c1nc2c(C)cccc2c(=O)[nH]1	163 to 165
O=C1NC(N2CCCCC2)=N/C1=C\c1c[nH]c2ncc(Cl)cc12	315 to 320
O=C(O)Cc1cncc(Cc2nc3c(F)c(F)cc(F)c3s2)c1	196 to 197
Nc1ccnc(CCl)n1	125 to 128
COC(=O)C1CCC2C3CCC4CC(O)C(O)CC4(C)C3C(NC(=O)OCC(Cl)(Cl)Cl)CC12C (stereo not drawn)	228 to 230
CN[C@@H](CO)Cc1ccccc1	69
O=C(O)c1cc2ccccc2c(-c2cccc(I)c2)n1	145 to 146
COC(=O)/C=C/c1ccc(C)cc1C#N	95 to 96
COc1cc(C(=O)CS(C)(=O)=O)cc(OC)c1NC(C)=O	193 to 195
Cc1ccc(C)n1N(C)c1ccc(Cl)nn1	93 to 94.5
CCCCCCCCCCCCn1nnc(CN(Cc2ccccc2)C(=O)Nc2c(OC)cc(OC)cc2OC)n1	57 to 59
CN1CCc2c(c3ccccc3n2CCc2nc(-c3ccccc3)cs2)C1	128 to 130
C=C(C)C(=O)OCc1ccc(SC)cc1	41
CN(C)c1ccc2cc(-c3ccnc(Cl)c3C#N)ccc2c1	198 to 200
CCC(CC)Nc1c([N+](=O)[O-])cc(C)c(COC(=O)CCl)c1[N+](=O)[O-]	45 to 48
C[C@H]1CCCN(C(=O)[C@@H]2Cc3cc(-c4ccccc4)ccc3N2c2ccc(=O)n(C)n2)C1	204 to 206
COc1cccc2c(=O)c3ccc(Cl)cc3oc12	201 to 202
CC(=O)c1ccc(C2=NC[C@@H](O)[C@H](c3ccccc3)O2)cc1 (racemic)	130
CC(=O)Nc1ncc(-c2ccc(=O)n(C(C)C)n2)c(-c2ccccc2)n1	209 to 210
Cc1cc2c(cc1-c1ccc(C#CC(=O)O)s1)C(C)(C)CCC2(C)C	138 to 140
Cc1cccc(C(=O)c2[nH]c3cc(Cl)ccc3c2N)n1	210 to 211

— a melting point compilation (Tetko et al.; mined from patent text by program, amines drawn as free bases though some values may be those of a salt)
